The record followed here is US12122763B2, “Substituted piperidines for androgen receptor degradation” (UBIX THERAPEUTICS, INC., priority 2020, dated 2024).

The assay deals with T1, Androgen Receptor (AR) protein (Homo sapiens, UniProt P10275, T878A).
T1 construct: endogenous in cells; host or cells: LNCaP
Description: Androgen Receptor (AR) protein degradation assay in LNCaP cells, western blotting. It counts as cell-based. The following applies: 20 h; for inhibition at 0.01 µM: 0.01 μM compound; for inhibition at 0.1 µM: 0.1 μM compound; for inhibition at 1 µM: 1 μM compound. An outline of the steps: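 LNCaP prostate cancer cells were cultured 3 days, then treated with compound for 20 h. Lysates in 1% SDS buffer were normalised by BCA, and 8 μg protein was run on 4–12% Bis-Tris gels. AR was immunoblotted with chemiluminescence, using GAPDH/β-actin as loading controls.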
On the technique in general: Immunoblotting shows a protein as a band on a membrane.

T1 sequence (P10275 whole entry T878A): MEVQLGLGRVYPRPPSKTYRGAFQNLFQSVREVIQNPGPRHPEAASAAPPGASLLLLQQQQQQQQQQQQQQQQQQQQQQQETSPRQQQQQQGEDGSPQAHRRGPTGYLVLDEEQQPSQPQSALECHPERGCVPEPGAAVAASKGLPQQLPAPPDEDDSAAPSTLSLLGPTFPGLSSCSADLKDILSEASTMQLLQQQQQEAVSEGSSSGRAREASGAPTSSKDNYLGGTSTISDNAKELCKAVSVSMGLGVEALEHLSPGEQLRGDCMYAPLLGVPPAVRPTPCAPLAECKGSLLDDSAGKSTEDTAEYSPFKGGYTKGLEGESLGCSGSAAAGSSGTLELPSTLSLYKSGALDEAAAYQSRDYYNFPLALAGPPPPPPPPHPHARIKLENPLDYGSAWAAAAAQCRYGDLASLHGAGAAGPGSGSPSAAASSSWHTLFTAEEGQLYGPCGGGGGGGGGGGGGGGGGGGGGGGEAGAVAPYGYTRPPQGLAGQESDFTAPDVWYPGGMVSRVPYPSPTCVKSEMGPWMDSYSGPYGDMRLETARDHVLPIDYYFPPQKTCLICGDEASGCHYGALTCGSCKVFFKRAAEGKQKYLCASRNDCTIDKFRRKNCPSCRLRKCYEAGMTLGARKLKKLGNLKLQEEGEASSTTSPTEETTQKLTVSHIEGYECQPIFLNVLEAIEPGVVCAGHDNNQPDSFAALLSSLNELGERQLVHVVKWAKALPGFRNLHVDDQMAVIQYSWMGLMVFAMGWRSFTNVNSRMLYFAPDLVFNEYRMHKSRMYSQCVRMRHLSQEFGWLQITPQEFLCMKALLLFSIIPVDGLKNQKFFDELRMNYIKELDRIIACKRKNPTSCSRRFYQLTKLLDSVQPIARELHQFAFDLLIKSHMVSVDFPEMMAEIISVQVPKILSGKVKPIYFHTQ
T1 sequence (Q96SW2 whole entry partner): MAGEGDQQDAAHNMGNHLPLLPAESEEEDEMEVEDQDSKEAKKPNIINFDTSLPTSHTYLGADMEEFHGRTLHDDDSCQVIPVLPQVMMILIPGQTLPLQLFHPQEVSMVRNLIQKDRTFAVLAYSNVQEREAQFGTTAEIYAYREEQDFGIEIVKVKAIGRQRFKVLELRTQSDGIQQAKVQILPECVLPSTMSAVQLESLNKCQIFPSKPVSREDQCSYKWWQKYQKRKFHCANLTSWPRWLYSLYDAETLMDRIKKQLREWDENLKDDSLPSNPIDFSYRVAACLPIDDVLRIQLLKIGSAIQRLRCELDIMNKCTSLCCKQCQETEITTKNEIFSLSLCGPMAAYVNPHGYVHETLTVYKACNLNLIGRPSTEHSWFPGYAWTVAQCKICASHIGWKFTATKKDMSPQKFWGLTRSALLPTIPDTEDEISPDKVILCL

In the case of `N#Cc1ccc(N2CCC(C(=O)Nc3ccc(N4CCC(CN5CCN(CC(=O)Nc6cccc(NC7CCC(=O)NC7=O)c6)CC5)CC4)cn3)CC2)cc1C(F)(F)F` (stereo not shown) [Example 177, 1-(4-cyano-3-(trifluoromethyl)phenyl)-N-(5-(4-((4-(2-((3-((2,6-dioxopiperidin-3-yl)amino)phenyl)amino)-2-oxoethyl)piperazin-1-yl)methyl)piperidin-1-yl)pyridin-2-yl)piperidine-4-carboxamide], at 0.01 µM the inhibition was 14%; testing at 0.1 µM gave an inhibition of 37%; the inhibition (in general, the relative decrease from the control value, in per cent) at 1 µM stood at 35%.

In the case of `N#Cc1ccc(N2CCC(C(=O)Nc3ccc(OCCN4CCC(Oc5ccc6c(c5)C(=O)N(C5CCC(=O)NC5=O)C6=O)CC4)cn3)CC2)cc1C(F)(F)F` (stereo not shown) [Example 178, 1-(4-cyano-3-(trifluoromethyl)phenyl)-N-(5-(2-(4-((2-(2,6-dioxopiperidin-3-yl)-1,3-dioxoisoindolin-5-yl)oxy)piperidin-1-yl)ethoxy)pyridin-2-yl)piperidine-4-carboxamide], at 0.01 µM the inhibition was 23%, at 0.1 µM the inhibition was 64% and the inhibition at 1 µM was determined as 87%.

Consider `CC1(CN2CCN(CC3CCN(c4ccc5c(c4)C(=O)N(C4CCC(=O)NC4=O)C5=O)CC3)CC2)CN(c2ccc(NC(=O)C3CCN(c4ccc(C#N)c(C(F)(F)F)c4)CC3)nc2)C1` (stereo not shown) [Example 179, 1-(4-cyano-3-(trifluoromethyl)phenyl)-N-(5-(3-((4-((1-(2-(2,6-dioxopiperidin-3-yl)-1,3-dioxoisoindolin-5-yl)piperidin-4-yl)methyl)piperazin-1-yl)methyl)-3-methylazetidin-1-yl)pyridin-2-yl)piperidine-4-carboxamide], for which testing at 0.01 µM gave an inhibition of 73%, at 0.1 µM the inhibition was 98% and the inhibition at 1 µM turned out to be 97%.

As to `CC1(CN2CCC(COc3ccc4c(c3)C(=O)N(C3CCC(=O)NC3=O)C4=O)CC2)CN(c2ccc(NC(=O)C3CCN(c4ccc(C#N)c(C(F)(F)F)c4)CC3)nc2)C1` (stereo not shown) [Example 180, 1-(4-cyano-3-(trifluoromethyl)phenyl)-N-(5-(3-((4-(((2-(2,6-dioxopiperidin-3-yl)-1,3-dioxoisoindolin-5-yl)oxy)methyl)piperidin-1-yl)methyl)-3-methylazetidin-1-yl)pyridin-2-yl)piperidine-4-carboxamide], the inhibition at 0.01 µM turned out to be 36%, the inhibition at 0.1 µM amounted to 97% and testing at 1 µM gave an inhibition of 98%.

On to `N#Cc1ccc(N2CCC(C(=O)Nc3ccc(OCC4CCN(CC5CCN(c6cc7c(cc6F)C(=O)N(C6CCC(=O)NC6=O)C7=O)CC5)CC4)cn3)CC2)cc1C(F)(F)F` (stereo not shown) [Example 181, 1-(4-cyano-3-(trifluoromethyl)phenyl)-N-(5-((1-((1-(2-(2,6-dioxopiperidin-3-yl)-6-fluoro-1,3-dioxoisoindolin-5-yl)piperidin-4-yl)methyl)piperidin-4-yl)methoxy)pyridin-2-yl)piperidine-4-carboxamide], for which the inhibition at 0.01 µM was 75%, the inhibition at 0.1 µM was determined as 93% and the inhibition at 1 µM turned out to be 97%.

`N#Cc1ccc(N2CCC(C(=O)Nc3ccc(CC4CCN(CC5CCN(c6cc7c(cc6F)C(=O)N(C6CCC(=O)NC6=O)C7=O)CC5)CC4)cn3)CC2)cc1C(F)(F)F` (stereo not shown) [Example 182, 1-(4-cyano-3-(trifluoromethyl)phenyl)-N-(5-((1-((1-(2-(2,6-dioxopiperidin-3-yl)-6-fluoro-1,3-dioxoisoindolin-5-yl)piperidin-4-yl)methyl)piperidin-4-yl)methyl)pyridin-2-yl)piperidine-4-carboxamide]: at 0.01 µM the inhibition was 72%, the inhibition at 0.1 µM was found to be 96% and the inhibition at 1 µM is 98%.

In turn, `N#Cc1ccc(N2CCC(C(=O)Nc3ccc(OCC4CCN(CC5CN(c6ccc7c(c6)C(=O)N(C6CCC(=O)NC6=O)C7=O)C5)CC4)cn3)CC2)cc1C(F)(F)F` (stereo not shown) [Example 183, 1-(4-cyano-3-(trifluoromethyl)phenyl)-N-(5-((1-((1-(2-(2,6-dioxopiperidin-3-yl)-1,3-dioxoisoindolin-5-yl)azetidin-3-yl)methyl)piperidin-4-yl)methoxy)pyridin-2-yl)piperidine-4-carboxamide] had an inhibition at 0.01 µM of 72%, an inhibition at 0.1 µM of 87% and an inhibition at 1 µM of 93%.

As for `CC1(CN2CCC(COc3ccc(NC(=O)C4CCN(c5ccc(C#N)c(C(F)(F)F)c5)CC4)nc3)CC2)CN(c2ccc3c(c2)C(=O)N(C2CCC(=O)NC2=O)C3=O)C1` (stereo not shown) [Example 184, 1-(4-cyano-3-(trifluoromethyl)phenyl)-N-(5-((1-((1-(2-(2,6-dioxopiperidin-3-yl)-1,3-dioxoisoindolin-5-yl)-3-methylazetidin-3-yl)methyl)piperidin-4-yl)methoxy)pyridin-2-yl)piperidine-4-carboxamide], the inhibition at 0.01 µM is 72%, testing at 0.1 µM gave an inhibition of 91% and 1 µM produced 97% inhibition.

In turn, `N#Cc1ccc(N2CCC(C(=O)Nc3ccc(OCC4CN(CC5CCN(c6ccc7c(c6)C(=O)N(C6CCC(=O)NC6=O)C7=O)CC5)C4)cn3)CC2)cc1C(F)(F)F` (stereo not shown) [Example 185, 1-(4-cyano-3-(trifluoromethyl)phenyl)-N-(5-((1-((1-(2-(2,6-dioxopiperidin-3-yl)-1,3-dioxoisoindolin-5-yl)piperidin-4-yl)methyl)azetidin-3-yl)methoxy)pyridin-2-yl)piperidine-4-carboxamide] displayed an inhibition at 0.01 µM of 85%, an inhibition at 0.1 µM of 97% and an inhibition at 1 µM of 99%.

`CC1(COc2ccc(NC(=O)C3CCN(c4ccc(C#N)c(C(F)(F)F)c4)CC3)nc2)CN(CC2CCN(c3ccc4c(c3)C(=O)N(C3CCC(=O)NC3=O)C4=O)CC2)C1` (stereo not shown) [Example 186, 1-(4-cyano-3-(trifluoromethyl)phenyl)-N-(5-((1-((1-(2-(2,6-dioxopiperidin-3-yl)-1,3-dioxoisoindolin-5-yl)piperidin-4-yl)methyl)-3-methylazetidin-3-yl)methoxy)pyridin-2-yl)piperidine-4-carboxamide] registered an inhibition at 0.01 µM of 66%, an inhibition at 0.1 µM of 94% and an inhibition at 1 µM of 96%.

`N#Cc1ccc(N2CCC(C(=O)Nc3ccc(OC4CCN(CC5CCN(c6ccc7c(c6)C(=O)N(C6CCC(=O)NC6=O)C7=O)CC5)CC4)nn3)CC2)cc1C(F)(F)F` (stereo not shown) [Example 187, 1-(4-cyano-3-(trifluoromethyl)phenyl)-N-(6-((1-((1-(2-(2,6-dioxopiperidin-3-yl)-1,3-dioxoisoindolin-5-yl)piperidin-4-yl)methyl)piperidin-4-yl)oxy)pyridazin-3-yl)piperidine-4-carboxamide] gave an inhibition at 0.01 µM of 63% and an inhibition at 0.1 µM of 90%.

`N#Cc1ccc(N2CCC(C(=O)Nc3ccc(CN4CCC(CN5CCN(c6cc7c(cc6F)C(=O)N(C6CCC(=O)NC6=O)C7=O)CC5)CC4)cn3)CC2)cc1C(F)(F)F` (stereo not shown) [Example 188, 1-(4-cyano-3-(trifluoromethyl)phenyl)-N-(5-((4-((4-(2-(2,6-dioxopiperidin-3-yl)-6-fluoro-1,3-dioxoisoindolin-5-yl)piperazin-1-yl)methyl)piperidin-1-yl)methyl)pyridin-2-yl)piperidine-4-carboxamide] came in with an inhibition at 0.01 µM of 1% and an inhibition at 0.1 µM of 45%.
